Reference: PMC4890880 (ACS infectious diseases, 2016)

What follows are compounds tested on HepG2-A16-CD81EGFP cells. Conditions: 2nd round; maximal inhibition in dose series.

| Structure (SMILES) | Tox_max_inhibition (%) |
| --- | --- |
| C/C=C/c1ccc([C@H]2[C@@H](CO)N(C(=O)Nc3ccccc3F)[C@H]2C#N)cc1 [BRD-K12121340-001-01-2] | 9 |
| CN1c2ccc(C#Cc3cccnc3)cc2[C@@H]2[C@@H](CCN2C(=O)c2cccc(F)c2)[C@@H]1CO [BRD-K18296007-001-01-0] | 14 |
| CCCNC(=O)N1[C@H](C#N)[C@H](c2ccccc2-c2ccc(OC)cc2)[C@@H]1CO [BRD-K19492647-001-01-0] | 9 |
| CC(C)(C)[S+]([O-])N1Cc2cc(C(=O)NCc3ccc4c(c3)OCO4)nc(-c3cccc(-c4cc5ccccc5o4)c3)c2[C@H]1CCO (stereo partly drawn) [BRD-K19560511-001-03-3] | 12 |
| CCCNC(=O)N1[C@H](C#N)[C@H](c2ccccc2C2=CCCCC2)[C@@H]1CO [BRD-K29207675-001-01-5] | 12 |
| CCCNC(=O)N1[C@H](C#N)[C@@H](c2ccccc2-c2cccc(C)c2)[C@@H]1CO [BRD-K35047119-001-01-1] | 7 |
| Cc1ccc(S(=O)(=O)N(C)C[C@@H]2Oc3cc(C#CC4CCCC4)ccc3S(=O)(=O)N([C@@H](C)CO)C[C@H]2C)cc1 [BRD-K40215908-001-01-2] | 34 |
| CC(C)NC(=O)N1[C@H](C#N)[C@H](c2ccc(C#CC3CCCCC3)cc2)[C@@H]1CO [BRD-K48864121-001-01-0] | 54 |

Same assay, conditions: read-out: Tox_IC50; 2nd round; HepG2 cytotoxicity; unit inferred

| Structure (SMILES) | IC50 [µM] |
| --- | --- |
| C/C=C/c1ccc([C@H]2[C@@H](CO)N(C(=O)Nc3ccccc3F)[C@H]2C#N)cc1 [BRD-K12121340-001-01-2] | > 10 |
| CN1c2ccc(C#Cc3cccnc3)cc2[C@@H]2[C@@H](CCN2C(=O)c2cccc(F)c2)[C@@H]1CO [BRD-K18296007-001-01-0] | > 10 |
| CCCNC(=O)N1[C@H](C#N)[C@H](c2ccccc2-c2ccc(OC)cc2)[C@@H]1CO [BRD-K19492647-001-01-0] | > 10 |
| CC(C)(C)[S+]([O-])N1Cc2cc(C(=O)NCc3ccc4c(c3)OCO4)nc(-c3cccc(-c4cc5ccccc5o4)c3)c2[C@H]1CCO (stereo partly drawn) [BRD-K19560511-001-03-3] | > 10 |
| CCCNC(=O)N1[C@H](C#N)[C@H](c2ccccc2C2=CCCCC2)[C@@H]1CO [BRD-K29207675-001-01-5] | > 10 |
| CCCNC(=O)N1[C@H](C#N)[C@@H](c2ccccc2-c2cccc(C)c2)[C@@H]1CO [BRD-K35047119-001-01-1] | > 10 |
| Cc1ccc(S(=O)(=O)N(C)C[C@@H]2Oc3cc(C#CC4CCCC4)ccc3S(=O)(=O)N([C@@H](C)CO)C[C@H]2C)cc1 [BRD-K40215908-001-01-2] | > 10 |
| CC(C)NC(=O)N1[C@H](C#N)[C@H](c2ccc(C#CC3CCCCC3)cc2)[C@@H]1CO [BRD-K48864121-001-01-0] | 9.68 |

Same assay, conditions: read-out: Tox_IC50; sheet 2nd round; HepG2 cytotoxicity

| Structure (SMILES) | IC50 [µM] |
| --- | --- |
| CCCNC(=O)N1[C@H](CO)[C@H](c2ccc(C#Cc3cccc(F)c3)cc2)[C@@H]1C#N [BRD-K10089781-004-02-1] | > 10 |
| C[C@H](CO)N1C[C@H](C)[C@H](CN(C)S(=O)(=O)c2ccc(C(F)(F)F)cc2)OCc2ccccc2-c2c(n(C)c3ccccc23)C1=O [BRD-K10380905-001-01-3] | > 10 |
| COc1ccc(C(=O)N2C[C@@H]3[C@H](c4ccccc42)[C@H](CO)N3C(=O)Cc2ccccn2)cc1 [BRD-K13582094-001-01-2] | > 10 |
| COc1ccccc1NC(=O)N1C[C@@H]2N[C@H](C1)C2c1ccc(/C=C/c2ccccc2)cc1 (stereo partly drawn) [BRD-K16425675-019-01-0] | > 10 |
| CS(=O)(=O)N1C[C@@H]2N[C@H](C1)C2c1ccc(-c2ccccc2)cc1 (stereo partly drawn) [BRD-K16971439-019-01-0] | > 10 |
| COc1ccc2c3c(n(C)c2c1)[C@H](CO)N(Cc1ccc2c(c1)OCO2)CC31CN(C(=O)c2ccc3c(c2)OCO3)C1 [BRD-K24711160-001-01-3] | > 10 |
| O=C(Nc1cc(F)ccc1F)N1CCCCN2[C@H](CO)[C@H](c3ccc(C4=CCCCC4)cc3)[C@@H]2C1 [BRD-K26542939-001-01-0] | > 10 |
| COc1ccccc1S(=O)(=O)N(C)C[C@@H]1Oc2cc(/C=C/c3ccccc3)ccc2S(=O)(=O)N([C@H](C)CO)C[C@H]1C [BRD-K26611181-001-01-8] | > 10 |
| C[C@@H]1CCCCO[C@@H](CN(C)C(=O)Nc2cccc3ccccc23)[C@H](C)CN([C@@H](C)CO)C(=O)c2cc(NC(=O)CCC(F)(F)F)ccc2O1 [BRD-K26887637-001-01-4] | > 10 |
| O=C(Cc1ccccc1)N1CC(=O)N2[C@H](CO)[C@H](c3ccc(C#CCc4ccccc4)cc3)[C@H]2C1 [BRD-K27191881-001-01-3] | > 10 |
| C[C@H]1CN([C@@H](C)CO)C(=O)c2cc(/C=C/c3ccccc3)cnc2O[C@@H]1CN(C)C(=O)C1CCCCC1 [BRD-K27989629-001-01-7] | > 10 |
| CC(C)CC#Cc1ccc([C@@H]2[C@H]3CN(C(=O)Nc4ccccc4)CCCCN3[C@H]2CO)cc1 [BRD-K28504277-001-01-8] | 5.23 |
| COc1ccccc1NC(=O)Nc1ccc2c(c1)OC[C@@H](C)N(Cc1ccccc1Cl)C[C@@H](C)[C@H](OC)CN(C)C2=O [BRD-K28918058-001-01-5] | > 10 |
| COc1ccc2c3c([nH]c2c1)[C@H](CO)N(C(C)=O)CC31CCN(C(=O)Nc2ccccc2F)CC1 [BRD-K30973842-001-02-5] | > 10 |
| O=C(C[C@H]1C[C@@H]2c3cc(NC(=O)c4ccc5c(c4)OCO5)ccc3O[C@@H]2[C@@H](CO)O1)NCc1ccc(Oc2ccccc2)cc1 [BRD-K34781184-001-01-6] | > 10 |
| Cc1cc(C(=O)Nc2ccc3c(c2)C(=O)N(C)[C@@H]2CC[C@H](CC(=O)NCc4ccc(-c5ccccc5)cc4)O[C@@H]2CO3)no1 [BRD-K35841161-001-02-2] | > 10 |

Same assay, conditions: sheet 2nd round; maximal inhibition in dose response

| Structure (SMILES) | Tox_max_inhibition (%) |
| --- | --- |
| CCCNC(=O)N1[C@H](CO)[C@H](c2ccc(C#Cc3cccc(F)c3)cc2)[C@@H]1C#N [BRD-K10089781-004-02-1] | 13 |
| C[C@H](CO)N1C[C@H](C)[C@H](CN(C)S(=O)(=O)c2ccc(C(F)(F)F)cc2)OCc2ccccc2-c2c(n(C)c3ccccc23)C1=O [BRD-K10380905-001-01-3] | 20 |
| COc1ccc(C(=O)N2C[C@@H]3[C@H](c4ccccc42)[C@H](CO)N3C(=O)Cc2ccccn2)cc1 [BRD-K13582094-001-01-2] | 4 |
| COc1ccccc1NC(=O)N1C[C@@H]2N[C@H](C1)C2c1ccc(/C=C/c2ccccc2)cc1 (stereo partly drawn) [BRD-K16425675-019-01-0] | 9 |
| CS(=O)(=O)N1C[C@@H]2N[C@H](C1)C2c1ccc(-c2ccccc2)cc1 (stereo partly drawn) [BRD-K16971439-019-01-0] | 5 |
| COc1ccc2c3c(n(C)c2c1)[C@H](CO)N(Cc1ccc2c(c1)OCO2)CC31CN(C(=O)c2ccc3c(c2)OCO3)C1 [BRD-K24711160-001-01-3] | 3 |
| O=C(Nc1cc(F)ccc1F)N1CCCCN2[C@H](CO)[C@H](c3ccc(C4=CCCCC4)cc3)[C@@H]2C1 [BRD-K26542939-001-01-0] | 16 |
| COc1ccccc1S(=O)(=O)N(C)C[C@@H]1Oc2cc(/C=C/c3ccccc3)ccc2S(=O)(=O)N([C@H](C)CO)C[C@H]1C [BRD-K26611181-001-01-8] | 33 |
| C[C@@H]1CCCCO[C@@H](CN(C)C(=O)Nc2cccc3ccccc23)[C@H](C)CN([C@@H](C)CO)C(=O)c2cc(NC(=O)CCC(F)(F)F)ccc2O1 [BRD-K26887637-001-01-4] | 11 |
| O=C(Cc1ccccc1)N1CC(=O)N2[C@H](CO)[C@H](c3ccc(C#CCc4ccccc4)cc3)[C@H]2C1 [BRD-K27191881-001-01-3] | 3.49 |
| C[C@H]1CN([C@@H](C)CO)C(=O)c2cc(/C=C/c3ccccc3)cnc2O[C@@H]1CN(C)C(=O)C1CCCCC1 [BRD-K27989629-001-01-7] | 5 |
| CC(C)CC#Cc1ccc([C@@H]2[C@H]3CN(C(=O)Nc4ccccc4)CCCCN3[C@H]2CO)cc1 [BRD-K28504277-001-01-8] | 99 |
| COc1ccccc1NC(=O)Nc1ccc2c(c1)OC[C@@H](C)N(Cc1ccccc1Cl)C[C@@H](C)[C@H](OC)CN(C)C2=O [BRD-K28918058-001-01-5] | 13 |
| COc1ccc2c3c([nH]c2c1)[C@H](CO)N(C(C)=O)CC31CCN(C(=O)Nc2ccccc2F)CC1 [BRD-K30973842-001-02-5] | 14 |
| O=C(C[C@H]1C[C@@H]2c3cc(NC(=O)c4ccc5c(c4)OCO5)ccc3O[C@@H]2[C@@H](CO)O1)NCc1ccc(Oc2ccccc2)cc1 [BRD-K34781184-001-01-6] | 49 |
| Cc1cc(C(=O)Nc2ccc3c(c2)C(=O)N(C)[C@@H]2CC[C@H](CC(=O)NCc4ccc(-c5ccccc5)cc4)O[C@@H]2CO3)no1 [BRD-K35841161-001-02-2] | 37 |
